In patent US7939548B2, “Certain chemical entities, compositions, and methods” (Cytokinetics, Inc., priority 2006, dated 2011):
pIC50: −log10 of the molar value.

target: T1, chicken gizzard smooth muscle myosin subfragment-1 chemically crosslinked to either cardiac or skeletal actin (Gallus gallus, UniProt P10587); assay: Smooth muscle myosin ATPase dose response assay (pyruvate kinase/horseradish peroxidase/pyruvate oxidase-coupled); assay type: biochemical; settings: ATPase activity of crosslinked smooth muscle actomyosin (subfragment-1); amplex red fluorescence; 4 parameter fit; read-out: IC50 Arithmetic Mean
T1 construct: chicken gizzard smooth muscle myosin subfragment-1
Method: Screening assays were performed using a pyruvate kinase and lactate dehydrogenase-coupled ATPase assay containing the following reagents: Potassium PIPES (50 mM), MgCl2 (3 mM), KCl (100 mM), ATP (0.15 mM), DTT (1 mM), BSA (0.1 mg/ml), NADH (0.5 mM), PEP (1.5 mM), pyruvate kinase (4 U/ml), lactate dehydrogenase (8 U/ml), and antifoam (50 ppm) (concentrations expressed are final assay concentrations). The pH was adjusted to 6.80 at 22 °C by addition of potassium hydroxide. Lead optimization assays were performed with a more sensitive pyruvate kinase/horseradish peroxidase/pyruvate oxidase-coupled ATPase assay containing the following reagents: Potassium PIPES (12 mM), MgCl2 (2 mM), KCl (100 mM), ATP (0.15 mM), BSA (0.05 mg/ml), potassium phosphate (2 mM), amplex red (0.1 mM), PEP (0.1 mM), pyruvate kinase (4 U/ml), horseradish peroxidase (0.5 U/ml), pyruvate oxidase (0.5 U/ml), and antifoam (50 ppm) (concentrations expressed are final assay concentrations). The pH was adjusted to 7.00 at 22 °C by addition of potassium hydroxide.
The protein components specific to this assay are chicken gizzard smooth muscle myosin subfragment-1 that has been chemically crosslinked to either cardiac or skeletal actin using an excess of 1-Ethyl-3-[3-dimethylaminopropyl]carbodiimide hydrochloride and N-hydroxysuccinimide. The exact concentration of the crosslinked smooth muscle myosin in the assay is determined empirically, by titration to achieve a desired rate of ATP hydrolysis. The concentration varies between protein preparations due to variations in the fraction of active molecules in each preparation.
Compound dose response assays are performed by first preparing a dilution series of test compound, each with an assay mixture containing potassium PIPES, MgCl2, KCl, ATP, BSA, potassium phosphate, amplex red, PEP, crosslinked smooth muscle actomyosin (subfragment-1), antifoam, and water. The assay is started by adding an equal volume of solution containing potassium Pipes, MgCl2, KCl, BSA, potassium phosphate, pyruvate kinase, horseradish peroxidase, pyruvate oxidase, antifoam, and water. ATP hydrolysis is monitored by measuring the fluorescence of amplex red (excitation at 480 nm, emission at 615 nm). The resulting dose response curve is fit by the 4 parameter equation y=Bottom+((Top-Bottom)/(1+((IC50/X)^Hill))). The IC50 is defined as the concentration at which ATPase activity is midway between the top and bottom of the dose response curve.

Point of comparison: `CC(C)=Cc1ccc(C(=O)NCc2cccnc2)c(NCCc2cccc(F)c2)n1` [(2-{[2-(3-fluorophenyl)ethyl]amino}-6-(2-methylprop-1-enyl)(3-pyridyl))-N-(3-pyridylmethyl)carboxamide], pIC50 6.46. Against it:
- CNC(=O)CCCCNc1ccc(C(=O)NCc2cccnc2)c(NCCc2cccc(F)c2)n1 [5-[(6-{[2-(3-fluorophenyl)ethyl]amino}-5-[N-(3-pyridylmethyl)carbamoyl](2-pyridyl))amino]-N-methylpentanamide] — 2.04 log units lower, 4.42
- NCc1cccc(CNC(=O)c2cc(-c3cccnc3)cnc2NCCc2cccc(F)c2)n1 [N-{[6-(aminomethyl)(2-pyridyl)]methyl}(2-{[2-(3-fluorophenyl)ethyl]amino}-5-(3-pyridyl)(3-pyridyl))carboxamide] — 1.33 log units lower, 5.13
- NC(=O)CCCNc1ccc(C(=O)NCc2cccnc2)c(NCCc2cccc(F)c2)n1 [(6-[(3-carbamoylpropyl)amino]-2-{[2-(3-fluorophenyl)ethyl]amino}(3-pyridyl))-N-(3-pyridylmethyl)carboxamide] — 2.09 log units lower, 4.37
- C/C=C/c1nc(NCCc2cccc(F)c2)c(C(=O)NCc2cccnc2CNC(=O)OC(C)(C)C)cc1F [(6-((1E)prop-1-enyl)-5-fluoro-2-{[2-(3-fluorophenyl)ethyl]amino}(3-pyridyl))-N-[(2-{[(tert-butoxy)carbonylamino]methyl}(3-pyridyl))methyl]carboxamide] — 1.53 log units lower, 4.93
- CC(C)=C(C)c1ccc(C(=O)NCc2cccnc2)c(NCCc2cccc(F)c2)n1 [(6-(1,2-dimethylprop-1-enyl)-2-{[2-(3-fluorophenyl)ethyl]amino}(3-pyridyl))-N-(3-pyridylmethyl)carboxamide] — 0.90 log units lower, 5.56
- O=C(NCc1cccnc1)c1ccc(NCc2ccccn2)nc1NCCc1cccc(F)c1 [(2-{[2-(3-fluorophenyl)ethyl]amino}-6-[(2-pyridylmethyl)amino](3-pyridyl))-N-(3-pyridylmethyl)carboxamide] — 1.49 log units lower, 4.97
- CC(=O)N(CCO)c1ccc(C(=O)NCc2cccnc2)c(NCCc2cccc(F)c2)n1 [N-(6-{[2-(3-fluorophenyl)ethyl]amino}-5-[N-(3-pyridylmethyl)carbamoyl](2-pyridyl))-N-(2-hydroxyethyl)acetamide] — 2.19 log units lower, 4.27
- CN(C)C(=O)CCCNc1ccc(C(=O)NCc2cccnc2)c(NCCc2cccc(F)c2)n1 [4-[(6-{[2-(3-fluorophenyl)ethyl]amino}-5-[N-(3-pyridylmethyl)carbamoyl](2-pyridyl))amino]-N,N-dimethylbutanamide] — 2.31 log units lower, 4.15
- CCOC(C)c1ccc(C(=O)NCc2cccnc2)c(NCCc2cccc(F)c2)n1 (stereo not drawn) [(6-(ethoxyethyl)-2-{[2-(3-fluorophenyl)ethyl]amino}(3-pyridyl))-N-(3-pyridylmethyl)carboxamide] — 2.32 log units lower, 4.14
- COC/C=C/c1ccc(C(=O)NCc2cccnc2)c(NCCc2cccc(F)c2)n1 [(6-((1E)-3-methoxyprop-1-enyl)-2-{[2-(3-fluorophenyl)ethyl]amino}(3-pyridyl))-N-(3-pyridylmethyl)carboxamide] — 0.43 log units lower, 6.03
- NC(=O)CCCCNc1ccc(C(=O)NCc2cccnc2)c(NCCc2cccc(F)c2)n1 [(6-[(4-carbamoylbutyl)amino]-2-{[2-(3-fluorophenyl)ethyl]amino}(3-pyridyl))-N-(3-pyridylmethyl)carboxamide] — 1.29 log units lower, 5.17
- C/C=C/c1ccc(C(=O)NCc2cccnc2)c(NCCc2cccc(F)c2)n1 [(6-((1E)prop-1-enyl)-2-{[2-(3-fluorophenyl)ethyl]amino}(3-pyridyl))-N-(3-pyridylmethyl)carboxamide] — within 0.2 log units, 6.52
- N=C(N)c1ccc(C(=O)NCc2cccnc2)c(NCCc2cccc(F)c2)n1 [6-{[2-(3-fluorophenyl)ethyl]amino}-5-[N-(3-pyridylmethyl)carbamoyl]pyridine-2-carboxamidine] — 1.28 log units lower, 5.18
- C/C=C/c1nc(NCCc2cccc(F)c2)c(C(=O)NCc2cccnc2)cc1C#N [(6-((1E)prop-1-enyl)-5-cyano-2-{[2-(3-fluorophenyl)ethyl]amino}(3-pyridyl))-N-(3-pyridylmethyl)carboxamide] — within 0.2 log units, 6.44
- CNc1ccc(C(=O)NCc2cccnc2)c(NCCc2cccc(F)c2)n1 [(2-{[2-(3-fluorophenyl)ethyl]amino}-6-(methylamino)(3-pyridyl))-N-(3-pyridylmethyl)carboxamide] — 1.50 log units lower, 4.96
- CNC(=O)CNC(=O)c1cc(-c2ccccc2)cnc1NCCc1cccc(F)c1 [2-[(2-{[2-(3-fluorophenyl)ethyl]amino}-5-phenyl(3-pyridyl))carbonylamino]-N-methylacetamide] — 1.64 log units lower, 4.82
- C/C=C(/C)c1ccc(C(=O)NCc2cccnc2)c(NCCc2cccc(F)c2)n1 [(6-((1Z)-1-methylprop-1-enyl)-2-{[2-(3-fluorophenyl)ethyl]amino}(3-pyridyl))-N-(3-pyridylmethyl)carboxamide] — 1.48 log units lower, 4.98
- N#CNC(=N)c1ccc(C(=O)NCc2cccnc2)c(NCCc2cccc(F)c2)n1 [(6-[(cyanoamino)iminomethyl]-2-{[2-(3-fluorophenyl)ethyl]amino}(3-pyridyl))-N-(3-pyridylmethyl)carboxamide] — within 0.2 log units, 6.64
- C/C=C/c1nc(NCCc2cccc(F)c2)c(C(=O)NCc2cccnc2CN)cc1F [(6-((1E)prop-1-enyl)-5-fluoro-2-{[2-(3-fluorophenyl)ethyl]amino}(3-pyridyl))-N-{[2-(aminomethyl)(3-pyridyl)]methyl}carboxamide] — 0.63 log units higher, 7.09
- N#Cc1ccc(C(=O)NCc2cccnc2)c(NCCc2cccc(F)c2)n1 [(6-cyano-2-{[2-(3-fluorophenyl)ethyl]amino}(3-pyridyl))-N-(3-pyridylmethyl)carboxamide] — 2.28 log units lower, 4.18
- N#Cc1cnc(NCCc2cccc(F)c2)c(C(=O)NCc2ccccn2)c1 [(5-cyano-2-{[2-(3-fluorophenyl)ethyl]amino}(3-pyridyl))-N-(2-pyridylmethyl)carboxamide] — 1.56 log units lower, 4.90
- NC(=O)c1ccc(C(=O)NCc2cccnc2)c(NCCc2cccc(F)c2)n1 [6-{[2-(3-fluorophenyl)ethyl]amino}-5-[N-(3-pyridylmethyl)carbamoyl]pyridine-2-carboxamide] — 1.61 log units lower, 4.85
- COC(=O)c1cc(C#N)cnc1NCCc1cccc(F)c1 [methyl 5-cyano-2-{[2-(3-fluorophenyl)ethyl]amino}pyridine-3-carboxylate] — 1.63 log units lower, 4.83
- COC(=O)c1ccc(NCCCCC(N)=O)nc1NCCc1cccc(F)c1 [methyl 6-[(4-carbamoylbutyl)amino]-2-{[2-(3-fluorophenyl)ethyl]amino}pyridine-3-carboxylate] — 2.11 log units lower, 4.35
- O=C(NCc1cccnc1)c1ccc(NCc2ccncc2)nc1NCCc1cccc(F)c1 [(2-{[2-(3-fluorophenyl)ethyl]amino}-6-[(4-pyridylmethyl)amino](3-pyridyl))-N-(3-pyridylmethyl)carboxamide] — 1.99 log units lower, 4.47
- O=C(NCc1ccccn1)c1cc(Br)cnc1NCCc1cccc(F)c1 [(5-bromo-2-{[2-(3-fluorophenyl)ethyl]amino}(3-pyridyl))-N-(2-pyridylmethyl)carboxamide] — 1.53 log units lower, 4.93
- C/C=C/c1ccc(C(=O)NCc2cccnc2CN)c(NCCc2cccc(F)c2)n1 [(6-((1E)prop-1-enyl)-2-{[2-(3-fluorophenyl)ethyl]amino}(3-pyridyl))-N-{[2-(aminomethyl)(3-pyridyl)]methyl}carboxamide] — 0.96 log units higher, 7.42
- CN(C)c1ccc(C(=O)NCc2cccnc2)c(NCCc2cccc(F)c2)n1 [(6-(dimethylamino)-2-{[2-(3-fluorophenyl)ethyl]amino}(3-pyridyl))-N-(3-pyridylmethyl)carboxamide] — 1.15 log units lower, 5.31
- Cc1cccc(CNC(=O)c2cc(Br)cnc2NCCc2cccc(F)c2)n1 [(5-bromo-2-{[2-(3-fluorophenyl)ethyl]amino}(3-pyridyl))-N-[(6-methyl(2-pyridyl))methyl]carboxamide] — 1.71 log units lower, 4.75
- O=C(NCc1cccnc1)c1ccc(NCc2cccnc2)nc1NCCc1cccc(F)c1 [(2-{[2-(3-fluorophenyl)ethyl]amino}-6-[(3-pyridylmethyl)amino](3-pyridyl))-N-(3-pyridylmethyl)carboxamide] — 1.21 log units lower, 5.25
- COC(=O)c1ccc(C(=O)NCc2cccnc2)c(NCCc2cccc(F)c2)n1 [methyl 6-{[2-(3-fluorophenyl)ethyl]amino}-5-[N-(3-pyridylmethyl)carbamoyl]pyridine-2-carboxylate] — 1.10 log units lower, 5.36
- CCOC(=O)c1ccc(C(=O)NCc2cccnc2)c(NCCc2cccc(F)c2)n1 [ethyl 6-{[2-(3-fluorophenyl)ethyl]amino}-5-[N-(3-pyridylmethyl)carbamoyl]pyridine-2-carboxylate] — 0.88 log units lower, 5.58
